# Laboratory results taken from paper PMC8162404, “Proteomimetic surface fragments distinguish targets by function” (Chemical Science, 2020).
# Where two headings read alike, the source gives them in different places.
# Target: T1, Gal-1 (Homo sapiens, UniProt P09382)
# T1 construct: made in house; host or cells: E. coli BL21(DE3)
# Test: Pull-down assay with immobilized protein and LSM libraries
# Assay type: binding
# Description: Pull-down assays with immobilized test proteins and foldameric LSM libraries were carried out. Proteins were equilibrated with LSM probes, and equilibrium bound fractions (FB) were determined from the unbound fractions measured by HPLC-MS methods. Hits were corrected with background binding of the resin. The protocol allowed all binding events to equilibrate irrespective of affinity, specificity, and binding kinetics. This was essential to judge overall druggability and promiscuity. Importantly, the concentration of protein and the total concentration of foldameric LSMs were equimolar, which minimized competition between the probes. This experimental setup approximated independent binding of individual library members. Results were visualized as heat maps of dissociation constants (Fig. 3).
# Pull-down assay and data analysis
# Pull-down assay. LSM sublibraries were screened separately as previously described.(2) Experiments were performed in the following buffers: (i) 20 mM pH 7.4 HEPES, 150 mM NaCl, 5 mM CaCl2 for CaM; (ii) 50 mM pH 7.4 HEPES, 150 mM NaCl, 1 mM TCEP, 1 mM CaCl2 for S100 proteins; (iii) 20 mM pH 7.4 HEPES, 150 mM NaCl, 1 mM TCEP for Gal-1 and (iv) 20 mM pH 7.4 HEPES, 150 mM NaCl for RecQ-WH. Assays were performed in paper filter spin cups (Thermo Scientific) with sample volumes of 100 µl. Hexahistidine-tagged proteins were immobilized on previously washed Co-NTA resin (TALON, Takara Bio USA, Inc., Mountain View, CA) in 64 µM final concentration. LSM sublibrary was added, in which each of the 64 library members were used at a concentration of 1 µM. Samples were incubated at room temperature for 30 min with shaking at 100 rpm. Then, samples were centrifuged at 1000 rpm for 2 min and washed with 100 µl pull-down buffer to remove unbound compounds.
# The control experiments were performed using the same compounds and the resin but without the immobilized protein. In case of competitive assays, competitor peptides were added to LSM sublibrary samples in 200 µM final concentration. In the case of Gal-1, lactose (competitor) was used in a concentration of 10 mM. Experiments were performed at least twice. Mean […]
# LC-MS methods and parameters. HPLC/ESI-MS analysis was used to characterize the samples from the pull-down assay. LC-MS analysis was performed with a Thermo Scientific Dionex UltiMate 3000 HPLC system interfaced to an LTQ ion trap mass spectrometer (Thermo Electron Corp., San Jose, CA, USA). Samples were injected onto an Aeris Widepore XB-C18 (250 x 4.6 mm) analytical HPLC column using gradient elution 5-80 % solution B during 25 minutes. For pull-down samples, eluent composition was 0.1% acetic acid in distilled water (Solution A) and 0.1% acetic acid in acetonitrile (solution B). Mass spectra were acquired in full scan mode from 200 to 2000 m/z range. For overlapping peaks, selective reaction monitoring (SRM) was […]
# MS data analysis. Thermo Xcalibur 2.2 software was used for peak identification and integration. The majority of the foldameric fragments could be resolved independently via HPLC-MS/MS measurements based on molecular weight, MS fragmentation pattern and retention time. Peaks of some foldamers with β3-hIle or β3-hLeu in position R2 could not be resolved, these were integrated and averaged. In the processing method, each sample component was associated to a chromatographic peak based on previously identified mass (m/z) and retention time (ref (2) and Table S7-10). Using ICIS peak detection algorithm, the general detection and integration criteria were: smoothing points: 5, baseline window: 80, area noise factor: 5, peak noise factor: 10. Using these processing setups, all raw data files were reprocessed together and analyzed. Errors in peak identification during the automatic processing were corrected manually.
# Calculation of the discussed parameters
# 1. Bound fractions (FB.) were calculated from the HPLC-MS intensity loss of the LSM probes compared to the control where no protein was immobilized to the resin: […]
# [1] = H12 library, 1:1 binding assumed, read-out: Surface mapping KD (apparent)
# [2] = H14 library, 1:1 binding assumed, read-out: Surface mapping KD (apparent)
# T1 sequence (P09382 whole entry): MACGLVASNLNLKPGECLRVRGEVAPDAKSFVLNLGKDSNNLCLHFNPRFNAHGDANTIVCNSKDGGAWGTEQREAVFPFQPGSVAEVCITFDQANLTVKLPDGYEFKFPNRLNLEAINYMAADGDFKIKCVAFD
SMILES,Kd [1],other results
CSCC[C@@H](CC(=O)N[C@H]1CCC[C@@H]1C(=O)N[C@H]1CCC[C@@H]1C(N)=O)NC(=O)[C@H]1CCC[C@@H]1NC(=O)[C@H]1CCC[C@@H]1NC(=O)C[C@H](CC(=O)O)NC(=O)[C@H]1CCC[C@@H]1NC(=O)[C@H]1CCC[C@@H]1N [H12 DM],218 µM,
NC(=O)[C@H]1CCC[C@@H]1NC(=O)[C@H]1CCC[C@@H]1NC(=O)C[C@H](CC(=O)O)NC(=O)[C@H]1CCC[C@@H]1NC(=O)[C@H]1CCC[C@@H]1NC(=O)C[C@H](CCC(=O)O)NC(=O)[C@H]1CCC[C@@H]1NC(=O)[C@H]1CCC[C@@H]1N [H12 ED],238 µM,
C[C@@H](CC(=O)N[C@H]1CCCC[C@@H]1C(=O)N[C@H]1CCCC[C@@H]1C(=O)N[C@@H](CC(N)=O)CC(=O)N[C@H]1CCCC[C@@H]1C(N)=O)NC(=O)[C@H]1CCCC[C@@H]1N [H14 AN],,Kd [2]: 303 µM
C[C@@H](CC(=O)N[C@H]1CCCC[C@@H]1C(=O)N[C@H]1CCCC[C@@H]1C(=O)N[C@@H](CC(=O)O)CC(=O)N[C@H]1CCCC[C@@H]1C(N)=O)NC(=O)[C@H]1CCCC[C@@H]1N [H14 AD],,Kd [2]: 168 µM
NCCCC[C@@H](CC(=O)N[C@H]1CCC[C@@H]1C(=O)N[C@H]1CCC[C@@H]1C(N)=O)NC(=O)[C@H]1CCC[C@@H]1NC(=O)[C@H]1CCC[C@@H]1NC(=O)C[C@H](CCC(=O)O)NC(=O)[C@H]1CCC[C@@H]1NC(=O)[C@H]1CCC[C@@H]1N [H12 EK],200 µM,
C[C@@H](CC(=O)N[C@H]1CCC[C@@H]1C(=O)N[C@H]1CCC[C@@H]1C(N)=O)NC(=O)[C@H]1CCC[C@@H]1NC(=O)[C@H]1CCC[C@@H]1NC(=O)C[C@H](CCC(=O)O)NC(=O)[C@H]1CCC[C@@H]1NC(=O)[C@H]1CCC[C@@H]1N [H12 EA],340 µM,
CSCC[C@@H](CC(=O)N[C@H]1CCCC[C@@H]1C(=O)N[C@H]1CCCC[C@@H]1C(=O)N[C@@H](CCC(=O)O)CC(=O)N[C@H]1CCCC[C@@H]1C(N)=O)NC(=O)[C@H]1CCCC[C@@H]1N [H14 ME],,Kd [2]: 250 µM
N=C(N)NCCC[C@@H](CC(=O)N[C@H]1CCC[C@@H]1C(=O)N[C@H]1CCC[C@@H]1C(=O)N[C@@H](CC(=O)O)CC(=O)N[C@H]1CCC[C@@H]1C(=O)N[C@H]1CCC[C@@H]1C(N)=O)NC(=O)[C@H]1CCC[C@@H]1NC(=O)[C@H]1CCC[C@@H]1N [H12 RD],250 µM,
NC(=O)CC[C@@H](CC(=O)N[C@H]1CCC[C@@H]1C(=O)N[C@H]1CCC[C@@H]1C(N)=O)NC(=O)[C@H]1CCC[C@@H]1NC(=O)[C@H]1CCC[C@@H]1NC(=O)C[C@H](CC(=O)O)NC(=O)[C@H]1CCC[C@@H]1NC(=O)[C@H]1CCC[C@@H]1N [H12 DQ],244 µM,
CC(C)C[C@@H](CC(=O)N[C@H]1CCC[C@@H]1C(=O)N[C@H]1CCC[C@@H]1C(=O)N[C@@H](CCC(=O)O)CC(=O)N[C@H]1CCC[C@@H]1C(=O)N[C@H]1CCC[C@@H]1C(N)=O)NC(=O)[C@H]1CCC[C@@H]1NC(=O)[C@H]1CCC[C@@H]1N [H12 LE],335 µM,
NC(=O)[C@H]1CCC[C@@H]1NC(=O)[C@H]1CCC[C@@H]1NC(=O)C[C@H](Cc1c[nH]c2ccccc12)NC(=O)[C@H]1CCC[C@@H]1NC(=O)[C@H]1CCC[C@@H]1NC(=O)C[C@H](CC(=O)O)NC(=O)[C@H]1CCC[C@@H]1NC(=O)[C@H]1CCC[C@@H]1N [H12 DW],240 µM,
NCCCC[C@@H](CC(=O)N[C@H]1CCC[C@@H]1C(=O)N[C@H]1CCC[C@@H]1C(=O)N[C@@H](CCC(=O)O)CC(=O)N[C@H]1CCC[C@@H]1C(=O)N[C@H]1CCC[C@@H]1C(N)=O)NC(=O)[C@H]1CCC[C@@H]1NC(=O)[C@H]1CCC[C@@H]1N [H12 KE],212 µM,
NC(=O)[C@H]1CCC[C@@H]1NC(=O)[C@H]1CCC[C@@H]1NC(=O)C[C@H](Cc1ccccc1)NC(=O)[C@H]1CCC[C@@H]1NC(=O)[C@H]1CCC[C@@H]1NC(=O)C[C@H](CC(=O)O)NC(=O)[C@H]1CCC[C@@H]1NC(=O)[C@H]1CCC[C@@H]1N [H12 DF],254 µM,
NC(=O)[C@H]1CCC[C@@H]1NC(=O)[C@H]1CCC[C@@H]1NC(=O)C[C@H](CC(=O)O)NC(=O)[C@H]1CCC[C@@H]1NC(=O)[C@H]1CCC[C@@H]1NC(=O)C[C@H](CC(=O)O)NC(=O)[C@H]1CCC[C@@H]1NC(=O)[C@H]1CCC[C@@H]1N [H12 DD],372 µM,
NC(=O)[C@H]1CCCC[C@@H]1NC(=O)C[C@H](Cc1ccccc1)NC(=O)[C@H]1CCCC[C@@H]1NC(=O)[C@H]1CCCC[C@@H]1NC(=O)C[C@H](Cc1c[nH]c2ccccc12)NC(=O)[C@H]1CCCC[C@@H]1N [12b],,Kd (read-out: KD estimated by pull-down experiments): 30 to 40 µM
CSCC[C@@H](CC(=O)N[C@H]1CCC[C@@H]1C(=O)N[C@H]1CCC[C@@H]1C(N)=O)NC(=O)[C@H]1CCC[C@@H]1NC(=O)[C@H]1CCC[C@@H]1NC(=O)C[C@H](CCC(=O)O)NC(=O)[C@H]1CCC[C@@H]1NC(=O)[C@H]1CCC[C@@H]1N [H12 EM],251 µM,
CC(C)[C@@H](CC(=O)N[C@H]1CCC[C@@H]1C(=O)N[C@H]1CCC[C@@H]1C(N)=O)NC(=O)[C@H]1CCC[C@@H]1NC(=O)[C@H]1CCC[C@@H]1NC(=O)C[C@H](C)NC(=O)[C@H]1CCC[C@@H]1NC(=O)[C@H]1CCC[C@@H]1N [H12 AV],491 µM,

# Continued, in another order:
Kd [1],SMILES,other results
401 µM,CC[C@H](C)[C@@H](CC(=O)N[C@H]1CCC[C@@H]1C(=O)N[C@H]1CCC[C@@H]1C(=O)N[C@@H](CC(N)=O)CC(=O)N[C@H]1CCC[C@@H]1C(=O)N[C@H]1CCC[C@@H]1C(N)=O)NC(=O)[C@H]1CCC[C@@H]1NC(=O)[C@H]1CCC[C@@H]1N [H12 IN],
226 µM,NC(=O)C[C@@H](CC(=O)N[C@H]1CCC[C@@H]1C(=O)N[C@H]1CCC[C@@H]1C(N)=O)NC(=O)[C@H]1CCC[C@@H]1NC(=O)[C@H]1CCC[C@@H]1NC(=O)C[C@H](CC(=O)O)NC(=O)[C@H]1CCC[C@@H]1NC(=O)[C@H]1CCC[C@@H]1N [H12 DN],
316 µM,CC(C)[C@@H](CC(=O)N[C@H]1CCC[C@@H]1C(=O)N[C@H]1CCC[C@@H]1C(N)=O)NC(=O)[C@H]1CCC[C@@H]1NC(=O)[C@H]1CCC[C@@H]1NC(=O)C[C@H](CCC(=O)O)NC(=O)[C@H]1CCC[C@@H]1NC(=O)[C@H]1CCC[C@@H]1N [H12 EV],
497 µM,CC(C)[C@@H](CC(=O)N[C@H]1CCC[C@@H]1C(=O)N[C@H]1CCC[C@@H]1C(=O)N[C@@H](CC(N)=O)CC(=O)N[C@H]1CCC[C@@H]1C(=O)N[C@H]1CCC[C@@H]1C(N)=O)NC(=O)[C@H]1CCC[C@@H]1NC(=O)[C@H]1CCC[C@@H]1N [H12 VN],
480 µM,CC(C)[C@@H](CC(=O)N[C@H]1CCC[C@@H]1C(=O)N[C@H]1CCC[C@@H]1C(=O)N[C@@H](CC(=O)O)CC(=O)N[C@H]1CCC[C@@H]1C(=O)N[C@H]1CCC[C@@H]1C(N)=O)NC(=O)[C@H]1CCC[C@@H]1NC(=O)[C@H]1CCC[C@@H]1N [H12 VD],
446 µM,CC[C@H](C)[C@@H](CC(=O)N[C@H]1CCC[C@@H]1C(=O)N[C@H]1CCC[C@@H]1C(=O)N[C@@H](CCC(N)=O)CC(=O)N[C@H]1CCC[C@@H]1C(=O)N[C@H]1CCC[C@@H]1C(N)=O)NC(=O)[C@H]1CCC[C@@H]1NC(=O)[C@H]1CCC[C@@H]1N [H12 IQ],
372 µM,C[C@@H](O)[C@@H](CC(=O)N[C@H]1CCC[C@@H]1C(=O)N[C@H]1CCC[C@@H]1C(N)=O)NC(=O)[C@H]1CCC[C@@H]1NC(=O)[C@H]1CCC[C@@H]1NC(=O)C[C@H](CCC(=O)O)NC(=O)[C@H]1CCC[C@@H]1NC(=O)[C@H]1CCC[C@@H]1N [H12 ET],
248 µM,C[C@@H](CC(=O)N[C@H]1CCC[C@@H]1C(=O)N[C@H]1CCC[C@@H]1C(N)=O)NC(=O)[C@H]1CCC[C@@H]1NC(=O)[C@H]1CCC[C@@H]1NC(=O)C[C@H](CC(=O)O)NC(=O)[C@H]1CCC[C@@H]1NC(=O)[C@H]1CCC[C@@H]1N [H12 DA],
398 µM,C[C@@H](O)[C@@H](CC(=O)N[C@H]1CCC[C@@H]1C(=O)N[C@H]1CCC[C@@H]1C(N)=O)NC(=O)[C@H]1CCC[C@@H]1NC(=O)[C@H]1CCC[C@@H]1NC(=O)C[C@H](CC(=O)O)NC(=O)[C@H]1CCC[C@@H]1NC(=O)[C@H]1CCC[C@@H]1N [H12 DT],
